Results on four molecules are retold here after ChEMBL document CHEMBL1121522, “Binding specificities of adenosine aminohydrolase from calf intestinal mucosa with dialdehydes derived from hexofuranosyladenine nucleosides” (J Med Chem, 1980).

What is called Ki is a dissociation constant, usually derived from enzyme kinetics or from competition with a known ligand. The term Vmax denotes the rate approached at saturating substrate. Usually Km stands for the substrate concentration at which the rate is half of its maximum.

The structures appear in SMILES notation.

Data set [1] deals with T1, Adenosine deaminase (Bos taurus, UniProt P56658).
T1 sequence (P56658 whole entry): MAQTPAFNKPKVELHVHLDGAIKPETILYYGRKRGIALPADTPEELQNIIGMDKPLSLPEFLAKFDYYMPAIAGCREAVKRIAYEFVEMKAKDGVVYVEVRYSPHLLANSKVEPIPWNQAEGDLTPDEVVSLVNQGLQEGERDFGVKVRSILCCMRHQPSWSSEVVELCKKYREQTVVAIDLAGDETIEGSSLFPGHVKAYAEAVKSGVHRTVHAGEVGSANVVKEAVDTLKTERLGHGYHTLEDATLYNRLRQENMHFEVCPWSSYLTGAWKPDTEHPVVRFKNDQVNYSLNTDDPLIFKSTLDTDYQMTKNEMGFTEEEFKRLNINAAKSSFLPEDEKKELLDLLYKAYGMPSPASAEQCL
As to the kind of experiment: Inhibition constant against Adenosine deaminase was determined from calf intestinal mucosa.

For data set [2], the species on record is Bos taurus. As to the kind of experiment: Kinetic constant (Vmax) against Adenosine Aminohydrolase was determined from calf intestinal mucosa. The data set is classed as ADME. The note with it: cattle, in vitro.
The subject of data set [3] is adenosine aminohydrolase (adenosine deaminase). As to the kind of experiment: Kinetic Constant (Km) against Adenosine Aminohydrolase was determined from calf intestinal mucosa. The data set is classed as ADME, Bos taurus. The conditions noted are these: cattle.

In data set [1], `C=C[C@@H](C=O)O[C@@H](C=O)n1cnc2c(N)ncnc21` showed a Ki of 50 µM.

In data set [1], `C=C[C@H](C=O)O[C@H](C=O)n1cnc2c(N)ncnc21` had a Ki of 7 µM.

Consider `CC(O)[C@H](C=O)O[C@@H](C=O)n1cnc2c(N)ncnc21` (stereo partly drawn), for which the Ki in data set [1] worked out at 370 µM. Besides, in data set [2], the Vmax turned out to be 0.41 µmol/min/mg. Besides, the Km in data set [3] was found to be 140 µM.

In data set [1], `CC(O)[C@@H](C=O)O[C@@H](C=O)n1cnc2c(N)ncnc21` (stereo partly drawn) had a Ki of 430 µM. Moreover, in data set [2], the Vmax is 0.46 µmol/min/mg. The Km in data set [3] amounted to 350 µM.
